The test system of one assay is Colo205. Description: CellTiter-Glo cell viability assay, Colo205. The assay is classed as cell-based. The conditions noted are these: Homo sapiens, read-out: Colo205 IC50. The source says:
(§1) The CellTiter-Glo® Luminescent Cell Viability Assay is a homogeneous method of determining the number of viable cells in culture based on quantitation of the ATP present, which signals the presence of metabolically active cells. The homogeneous assay procedure involves addition of a single reagent directly to cells cultured in serum-supplemented medium. The homogeneous format results in cell lysis and generation of a luminescent signal proportional to the amount of ATP present. The CellTiter-Glo® Assay relies on the properties of a proprietary thermostable luciferase (Ultra-Glo. Recombinant Luciferase), which generates a stable glow-type Luminescent signal. The half-life of the luminescent signal resulting from this reaction is greater than five hours. This extended half-life eliminates the need for reagent injectors and provides flexibility for continuous or batch-mode processing of multiple plates. The unique homogeneous format reduces pipetting errors that may be introduced during the multiple steps required by other ATP-measurement methods.
(§2) 96 Well cell culture plates were seeded with 10^3 mammalian cells (Colo205, HL-60, SW620, HCT116, MCF-7 and MV-411) in 100 μl culture medium. The cells were incubated overnight prior to initiating the assay. Control wells were prepared on a plate containing medium only to obtain a value for background luminescence.
(§3) Compounds to be tested were added to experimental wells and incubated for 72 hrs (Colo205, HL-60, MV-411), 168 hrs (HCT116, SW620) or 240 hrs (MCF-7). Wells were also set up to as vehicle controls with the addition of 0.1% DMSO. At the end of the incubation period, the plates were equilibrated to room temperature for approximately 30 minutes.
(§4) Lyophilized CellTiter-Glo® Substrate and the CellTiter-Glo® Buffer were warmed to room temperature. The CellTiter-Glo® Buffer was mixed with the CellTiter-Glo® Substrate to reconstitute the lyophilized enzyme/substrate mixture. This forms the CellTiter-Glo® Reagent. The contents were mixed by gently vortexing, swirling or by inverting the contents to obtain a homogeneous solution. 100 μl of CellTiter-Glo® Reagent was added to the cell culture medium present in each well. The contents were mixed for 2 minutes on an orbital shaker to induce cell lysis. The plates were allowed to incubate at room temperature for 10 minutes to stabilize luminescent signal. The contents of the 96 well cell culture plate were then transferred to a white 96 well Optiplate (Perkin Elmer). The luminescence was recorded on Wallac 1420 VICTOR^2 V Multilabel Platereader (An integration time of 0.25-1 second per well).
(§5) 10 mM DMSO stock Compounds were serially diluted threefold in DMSO. Subsequent dilutions made into cell culture media prior to addition to cells to maintain the DMSO concentration at or below 0.1% to avoid cell toxicity.
(§6) The IC50s in Table 2 are the concentration at which 50% growth inhibition relative to control occurs.
On the technique in general: Cellular ATP, detected with luciferase, serves as a proxy for viable cell number.

A further assay concerns HL-60. Description: CellTiter-Glo cell viability assay, HL-60. The assay is classed as cell-based. As to conditions: Homo sapiens, HL-60, 72 h, read-out: HL-60 IC50.
Description: as §1, §2, §3, §4, §5, §6

In a further assay the test system is SW620. Description: CellTiter-Glo cell viability assay, SW620. The assay is classed as cell-based. The conditions noted are these: Homo sapiens, SW-620, 168 h, read-out: SW620 IC50.
Description: as §1, §2, §3, §4, §5, §6

A further assay deals with HCT116. Briefly: CellTiter-Glo cell viability assay, HCT116. It counts as cell-based. As to conditions: Homo sapiens, read-out: HCT116 IC50.
Description: as §1, §2, §3, §4, §5, §6

A further assay relates to MCF-7. Briefly: CellTiter-Glo cell viability assay, MCF-7. As to conditions: Homo sapiens, MCF7, 240 h, read-out: MCF-7 IC50. It counts as cell-based.
Description: as §1, §2, §3, §4, §5, §6

For another assay, the system named is MV-411. Briefly: CellTiter-Glo cell viability assay, MV-411. It counts as cell-based. As to conditions: Homo sapiens, MV4-11, 72 h, read-out: MV-411 IC50.
Description: as §1, §2, §3, §4, §5, §6

For assay [1], the target named is T1, full-length human Aurora A (Homo sapiens, UniProt O14965).
T1 construct: The full-length human Aurora A carrying His6 tag at the N-terminus; His6 (N); purchased Invitrogen, Carlsbad, Calif
T1 sequence (O14965 1-403): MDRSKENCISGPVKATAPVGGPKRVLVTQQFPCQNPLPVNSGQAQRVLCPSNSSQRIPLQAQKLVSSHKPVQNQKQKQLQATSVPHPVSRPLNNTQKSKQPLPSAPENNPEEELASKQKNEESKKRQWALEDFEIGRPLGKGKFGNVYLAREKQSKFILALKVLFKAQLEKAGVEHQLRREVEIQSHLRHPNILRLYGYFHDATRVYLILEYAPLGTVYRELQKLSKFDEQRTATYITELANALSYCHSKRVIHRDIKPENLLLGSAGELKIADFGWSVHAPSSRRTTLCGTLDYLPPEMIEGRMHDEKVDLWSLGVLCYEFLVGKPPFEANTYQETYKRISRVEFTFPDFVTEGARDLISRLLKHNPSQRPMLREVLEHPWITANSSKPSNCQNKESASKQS
Briefly: Aurora A phosphocellulose filter binding kinase activity assay. The assay is classed as biochemical. As to conditions: 11 nM Aurora A, 10 μM ATP, 50 μM Kemptide, 45 min; read-out: Aur-A IC50. The procedure: (§7) Kinase activity of Aurora kinases was measured by phosphocellulose filter binding assay. The full-length human Aurora A carrying His6 tag at the N-terminus (Invitrogen, Carlsbad, Calif.) and the full-length human Aurora B (N-terminal GST fusion) co-expressed and co-purified with the His6-INCENP INBOX, aminoacids 803-918 (Carna BioSciences, Japan) were used as the enzyme in the assays. Tested compounds were diluted in DMSO and pre-incubated with the enzyme and ATP/Mg^2+ mixture for at least 10 minutes. The reaction was started by addition of the Kemptide peptide substrate (LRRASLG) and allowed to proceed for 45 min at room temperature. Each reaction in a final volume of 40 μl contained 50 μM Kemptide, 10 μM [γ-^33P]ATP (1 Ci/mmol) and either 11 nM Aurora A or 1.5 nM Aurora B/INCENP complex in the buffer containing 10 mM MgCl2, 5% DMSO, 20 mM MOPS, pH 7.2, 25 mM β-glycerol phosphate, 5 mM EGTA, 1 mM Na3VO4 and either 0.1 mg/ml of BSA and 1 mM DTT for Aurora A or 0.01% Triton-X100 and 2 mM DTT for Aurora B. The reaction was stopped with 25 μl of 5% H3PO4, and 45 μl of the mixture was transferred into a MultiScreen-PH filterplate (Millipore) pre-washed with 0.85% H3PO4. The filterplate was washed 4 times with 200 μl of 0.85% H3PO4 on a vacuum manifold. Scintillation fluid (50 μl of Ultima Gold™ LLT, PerkinElmer, Waltham, Mass.) was added to each well, and after 1-hr incubation at room temperature the plates were counted on MicroBeta (PerkinElmer, Waltham, Mass.) plate reader. […] Percent inhibition values were calculated based on the counts of the positive and negative controls, and these values were regressed against inhibitor concentration and fit into a four parameter model. From this fit the IC50 values (the inhibitor concentration at which 50% inhibition occurs) were derived as the inflection point on the semi-logarithm inhibition curve.

In assay [2] the target is T2, full-length human Aurora B/INCENP complex (Homo sapiens, UniProt Q96GD4).
T2 construct: the full-length human Aurora B (N-terminal GST fusion); GST (N); purchased Carna BioSciences, Japan
T2 sequence (Q96GD4 whole entry, the tested form may be a part): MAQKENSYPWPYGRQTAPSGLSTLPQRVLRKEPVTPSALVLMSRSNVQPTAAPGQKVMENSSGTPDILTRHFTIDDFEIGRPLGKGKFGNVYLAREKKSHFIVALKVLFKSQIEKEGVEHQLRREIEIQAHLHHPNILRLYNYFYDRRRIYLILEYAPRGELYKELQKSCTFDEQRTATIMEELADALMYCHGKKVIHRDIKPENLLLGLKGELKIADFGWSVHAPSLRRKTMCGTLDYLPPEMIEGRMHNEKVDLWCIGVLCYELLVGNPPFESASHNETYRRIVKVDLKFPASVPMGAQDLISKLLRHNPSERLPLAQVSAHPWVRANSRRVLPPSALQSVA
T2 sequence (Q9NQS7 803-918 partner limits assumed): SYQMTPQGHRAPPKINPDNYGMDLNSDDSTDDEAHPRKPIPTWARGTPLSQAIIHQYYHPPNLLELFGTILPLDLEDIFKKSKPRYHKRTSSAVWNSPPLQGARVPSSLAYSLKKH
Briefly: Aurora B phosphocellulose filter binding kinase activity assay. The assay is classed as biochemical. As to conditions: 1.5 nM Aurora B/INCENP complex, 10 μM ATP, 50 μM Kemptide, 45 min; read-out: Aur-B IC50. The procedure:
as §7

[3] abbreviates: COLO 205, Colorectal cancer, 72 hrs, 50% growth inhibition relative to control.
Where [4] appears, read: HCT-116, Colorectal cancer, 168 hrs, 50% growth inhibition relative to control.

Read-outs that look alike come from different tables or passages of the source.

Regarding `CCN(CCO)CCCOc1ccc2c(Nc3cc(CC(=O)Nc4cccc(F)c4)[nH]n3)ncnc2c1` [AZD1152HQPA, reference compound], the IC50 in the assay with Colo205 (COLO 205, 72 h) worked out at 23 nM; in the assay with HL-60, 7.16 nM; in the assay on SW620, 20.9 nM; in the assay on HCT116 (HCT-116, 168 h) it was 14.3 nM; in the assay with MCF-7, 60.7 nM; in the assay on MV-411, 16.5 nM.

Turning to `CN1CCN(S(=O)(=O)c2ccc(-c3ccc4c(Nc5cc(CC(=O)Nc6cccc(F)c6)[nH]n5)ncnc4c3)cc2)CC1` [Compound 7, N-(3-fluorophenyl)-2-(3-(7-(4-(4-methylpiperazin-1-ylsulfonyl)phenyl)quinazolin-4-ylamino)-1H-pyrazol-5-yl)acetamide], the IC50 was 13.9 nM in assay [1] and 0.93 nM in assay [2].

Take `O=C(Cc1cc(Nc2ncnc3ccccc23)n[nH]1)Nc1cccc(F)c1` [Compound 8, N-(3-fluorophenyl)-2-(3-(quinazolin-4-ylamino)-1H-pyrazol-5-yl)acetamide]: the IC50 in assay [1] is 2480 nM; in assay [2], 14.9 nM.

Consider `O=C(Cc1cc(Nc2ncnc3cc(-c4ccc(C(=O)N5CCN(CC6CC6)CC5)cc4)ccc23)n[nH]1)Nc1cccc(F)c1` [Compound 9, 2-(3-(7-(4-(4-(Cyclopropylmethyl)piperazine-1-carbonyl)phenyl)quinazolin-4-ylamino)-1H-pyrazol-5-yl)-N-(3-fluorophenyl)acetamide], for which the concentration for half-maximal inhibition (IC50) in assay [1] amounted to 9.51 nM; in assay [2] it was 1.88 nM; with Colo205 (setting [3]) it was 9.88 nM; in the assay with HCT116 (setting [4]) it was 4.38 nM.

With `O=C(Cc1cc(Nc2ncnc3cc(-c4ccc(C(=O)N5CCN(C6CC6)CC5)cc4)ccc23)n[nH]1)Nc1cccc(F)c1` [Compound 10, 2-(3-(7-(4-(4-Cyclopropylpiperazine-1-carbonyl)phenyl)quinazolin-4-ylamino)-1H-pyrazol-5-yl)-N-(3-fluorophenyl)acetamide], the IC50 in assay [1] came to 4.62 nM; in assay [2], 1.23 nM; with Colo205 (setting [3]), 5.35 nM; in the assay with HCT116 (setting [4]), 1.57 nM.

As to `C[C@@H]1CN(C(=O)c2ccc(-c3ccc4c(Nc5cc(CC(=O)Nc6cccc(F)c6)[nH]n5)ncnc4c3)cc2)C[C@H](C)N1` [Compound 11, 2-(3-(7-(4-((3S,5R)-3,5-dimethylpiperazine-1-carbonyl)phenyl)quinazolin-4-ylamino)-1H-pyrazol-5-yl)-N-(3-fluorophenyl)acetamide], the IC50 in assay [1] was found to be 6.42 nM; in assay [2] it was 1.37 nM; in the assay on Colo205 (setting [3]), 2.9 nM; with HCT116 (setting [4]), 1.62 nM.

As to `O=C(Cc1cc(Nc2ncnc3cc(-c4ccc(C(=O)N5CCN(CCF)CC5)cc4)ccc23)n[nH]1)Nc1cccc(F)c1` [Compound 12, 2-(3-(7-(4-(4-(2-Fluoroethyl)piperazine-1-carbonyl)phenyl)quinazolin-4-ylamino)-1H-pyrazol-5-yl)-N-(3-fluorophenyl)acetamide], the IC50 in assay [1] was 2.86 nM; in assay [2], 0.74 nM; in the assay with Colo205 (setting [3]) it was 7.82 nM; in the assay with HCT116 (setting [4]), 3.98 nM.

Regarding `O=C(Cc1cc(Nc2ncnc3cc(-c4ccc(C(=O)N5CCN(CCOP(=O)(O)O)CC5)cc4)ccc23)n[nH]1)Nc1cccc(F)c1` [Compound 13, 2-(4-(4-(4-(5-(2-(3-Fluorophenylamino)-2-oxoethyl)-1H-pyrazol-3-ylamino)quinazolin-7-yl)benzoyl)piperazin-1-yl)ethyl dihydrogen phosphate], the IC50 in assay [1] stood at 1.91 nM; in assay [2], 0.34 nM; with Colo205 (setting [3]), 9.39 nM; in the assay with HCT116 (setting [4]) it was 6.43 nM.

`O=C(Cc1cc(Nc2ncnc3cc(-c4ccc(C(=O)N5CCN(CCO)CC5)cc4)ccc23)n[nH]1)Nc1cc(F)cc(F)c1` [Compound 14, N-(3,5-Difluorophenyl)-2-(3-(7-(4-(4-(2-hydroxyethyl)piperazine-1-carbonyl)phenyl)quinazolin-4-ylamino)-1H-pyrazol-5-yl)acetamide]: the IC50 in assay [1] was found to be 2.29 nM; in assay [2], 0.83 nM; in the assay with Colo205 (setting [3]) it was 8.11 nM; with HCT116 (setting [4]), 5.75 nM.

Consider `O=C(Cc1cc(Nc2ncnc3cc(-c4ccc(C(=O)N5CCN(CCO)CC5)cc4)ccc23)n[nH]1)Nc1cccc(F)c1F` [Compound 15, N-(2,3-Difluorophenyl)-2-(3-(7-(4-(4-(2-hydroxyethyl)piperazine-1-carbonyl)phenyl)quinazolin-4-ylamino)-1H-pyrazol-5-yl)acetamide], for which the IC50 in assay [1] was found to be 1.89 nM; in assay [2] it was 0.63 nM; with Colo205 (setting [3]), 3.07 nM; in the assay on HCT116 (setting [4]), 1.71 nM.

In general, IC50 refers to the concentration at which inhibition is half-maximal.

For the origin of these results see patent publication US20110136766A1, “AURORA KINASE INHIBITORS” (Vitae Pharmaceuticals, Inc., priority 2008, published 2011).
